Results published in paper PMC3408433, “Selective Cytotoxicity of Amidinopiperidine Based Compounds Towards Burkitt’s Lymphoma Cells Involves Proteasome Inhibition” (PLoS ONE, 2012).
Like-named read-outs stand apart in the source and are kept apart here.

Columns and labels:
[1] = test system: Ramos Burkitt’s lymphoma cells; assay: Metabolic activity assay (MTS), Ramos; assay type: cell-based, human; details: 24 h; for cytotoxicity group (Figure 3A) / viability at 100 µM: 100 µM; for viability at 100 µM: Homo sapiens, read-out: residual metabolic activity relative to untreated control
Procedure: When investigating the potency of selected serine protease inhibitors to induce cell death in human B lymphoma cells, we identified a set of compounds cytotoxic for Burkitt’s lymphoma. Using a metabolic activity assay (MTS), we evaluated the proliferation rate of Ramos Burkitt’s lymphoma cells, in the presence of serine protease inhibitors. Cells were treated for 24 h with the compound of interest at concentrations of 100 µM (1–13, 15, 16) or 50 µM (14). After a comparison of metabolic activity relative to that in the untreated control, three groups with distinct modes of action were determined (Figure 3A). […] The second group (compounds 1–3, 5, 7 and 13) caused a moderate decrease (50% to 80%) relative to untreated cells. The last group of compounds (11, 15, 16) severely impaired the metabolic activity, such that it fell to under 6%.
(§1) Cells (1×10^5 cells/mL for Ramos, Daudi, U937 and Jurkat, and 1×10^6 cells/mL for PBMC) were treated with the appropriate amounts of compounds of interest or corresponding vehicle (control cells), then seeded in triplicate in 96 well plates. The metabolic activity was assessed using the CellTiter 96® Aqueous One Solution Cell Proliferation Assay (Promega, Madison/WI, USA), in accordance with the manufacturer’s instructions.

Thrombin = biological target: Thrombin; parameters: method as in PMID 15497744, PMID 15544050, PMID 17484277; details: amidolytic assay, chromogenic substrate; determined previously; cited from earlier work
Factor Xa = biological target: Factor Xa; parameters: method as in PMID 15497744, PMID 15544050, PMID 17484277; details: amidolytic assay, chromogenic substrate; determined previously; cited from earlier work
Trypsin = biological target: Trypsin; parameters: method as in PMID 15497744, PMID 15544050, PMID 17484277; details: amidolytic assay, chromogenic substrate; determined previously; cited from earlier work
α-chymotrypsin = α-chymotrypsin (Bos taurus, UniProt P00766); assay: α-Chymotrypsin inhibition assay
Procedure: In short, a 1 nM solution of α-chymotrypsin was mixed with various concentrations of the substrate Suc-Ala-Ala-Pro-Phe-AMC. All the solutions were prepared in 144 mM Tris–HCl, pH 7.8. Substrate hydrolysis was monitored at 30°C on an automated Tecan Safire^2 microplate reader (Tecan, Mannedorf/Zürich, Switzerland). The initial rates of the reactions (ΔF/Δt) were measured immediately after the addition of the substrate (within 200 s) and plotted versus substrate concentration with nonlinear regression to fit a Michaelis-Menten plot. The curve fit and kinetic parameters (Km and v max) were calculated using GraphPad PRISM version 5.0 software (GraphPad Software, Inc., CA, USA). […] The initial velocities of the hydrolysis reactions were measured under the same conditions as described for the determination of Km. 50 µl of α-chymotrypsin solution was added to 50 µl of each inhibitor solution (prepared in 144 mM Tris–HCl, pH 7.8; final concentration 1 nM) and incubated at 30°C for 15 min. The reaction was initiated with the addition of 100 µl of substrate. […] The Ki values were determined as mean values of all measurements.

[2] = test system: peripheral blood mononuclear cells (PBMC); assay: Metabolic activity assay (MTS), PBMC; assay type: cell-based, human; details: 50 µM, 24 h
Procedure: (§2) Compounds 11, and 14–16 were further tested for selective cytotoxicity. The experiments were conducted on freshly isolated primary peripheral blood mononuclear cells (PBMC) and three other haematological cancers: human T cell leukaemia (Jurkat), human histiocytic lymphoma (U937) and human Burkitt’s lymphoma (Daudi). An MTS assay was performed following 24 h of treatment with the compound of interest at 50 µM. […] The inhibition of proliferation in Ramos cells, mediated with compounds 15 and 16, was concentration dependent.
as §1

[3] = test system: human T cell leukaemia (Jurkat); assay: Metabolic activity assay (MTS), Jurkat; assay type: cell-based; details: 50 µM, 24 h
Procedure: as §2, §1

[4] = test system: human histiocytic lymphoma (U937); assay: Metabolic activity assay (MTS), U937; assay type: cell-based; details: U937, 50 µM, 24 h
Procedure: as §2, §1

[5] = test system: human Burkitt’s lymphoma (Daudi); assay: Metabolic activity assay (MTS), Daudi; assay type: cell-based; details: 50 µM, 24 h
Procedure: as §2, §1

Solubility remark = assay type: physicochemical; details: reason for testing at 50 µM

SMILES | cytotoxicity group (Figure 3A) [1] | viability at 100 µM [1] [%] | Ki (Thrombin) [µM] | Ki (Factor Xa) [µM] | Ki (Trypsin) [µM] | Ki (α-chymotrypsin) [µM] | Ki (α-chymotrypsin; read-out: Ki α-chymotrypsin, substrate Suc-Ala-Ala-Pro-Phe-AMC, pH 7.8, 30°C) [µM] | residual metabolic activity relative to control ([1]; 50 µM) | residual metabolic activity relative to control [2] | residual metabolic activity relative to control [3] | residual metabolic activity relative to control [4] | residual metabolic activity relative to control [5] | solubility (Solubility remark)
N/C(=N/O)c1ccc(CN(NC(=O)c2ccc3ccccc3c2)C(=O)N2CCCCCC2)cc1 [Compound 1] | moderately cytotoxic (caused a moderate decrease (50% to 80%) relative to untreated cells) | 50 to 80 | 5.2 | 78 | 660 | 33.5 | – | – | – | – | – | – | –
CC1CCN(C(=O)N(Cc2ccc(/C(N)=N\O)cc2)NC(=O)c2ccc3ccccc3c2)CC1 [Compound 2] | moderately cytotoxic (caused a moderate decrease (50% to 80%) relative to untreated cells) | 50 to 80 | > 200 | > 200 | 200 | 259 | – | – | – | – | – | – | –
N/C(=N\O)c1cccc(CN(NC(=O)c2ccc3ccccc3c2)C(=O)N2CCCCCC2)c1 [Compound 3] | moderately cytotoxic (caused a moderate decrease (50% to 80%) relative to untreated cells) | 50 to 80 | 4.8 | 60 | > 100 | 3 | – | – | – | – | – | – | –
N/C(=N\O)c1cccc(CN(NS(=O)(=O)c2ccc3ccccc3c2)C(=O)N2CCOCC2)c1 [Compound 4] | well tolerated (well tolerated by Ramos, since their residual metabolic activity did not fall below 80%) | ≥ 80 | 3.1 | 60 | 48 | 41 | – | – | – | – | – | – | –
CC1CCN(C(=O)N(Cc2ccc(C#N)cc2)NC(=O)c2ccc3ccccc3c2)CC1 [Compound 5] | moderately cytotoxic (caused a moderate decrease (50% to 80%) relative to untreated cells) | 50 to 80 | – | – | – | 273 | – | – | – | – | – | – | –
CC1CCN(C(=O)N(Cc2cccc(C(=N)N)c2)NC(=O)c2ccc3ccccc3c2)CC1 [Compound 6] | well tolerated (well tolerated by Ramos, since their residual metabolic activity did not fall below 80%) | ≥ 80 | 6.8 | 5.7 | 1.8 | 17.1 | – | – | – | – | – | – | –
Nc1ccc(CN(NS(=O)(=O)c2ccc3ccccc3c2)C(=O)N2CCOCC2)cc1 [Compound 7] | moderately cytotoxic (caused a moderate decrease (50% to 80%) relative to untreated cells) | 50 to 80 | 4.5 | 62 | 5.6 | 4 | – | – | – | – | – | – | –
CC(=O)Nc1ccc(CN(NS(=O)(=O)c2ccc3ccccc3c2)C(=O)N2CCOCC2)cc1 [Compound 8] | well tolerated (well tolerated by Ramos, since their residual metabolic activity did not fall below 80%) | ≥ 80 | – | – | – | 24.7 | – | – | – | – | – | – | –
CC(=O)NCc1ccc(CN(NS(=O)(=O)c2ccc3ccccc3c2)C(=O)N2CCCCC2)cc1 [Compound 9] | well tolerated (well tolerated by Ramos, since their residual metabolic activity did not fall below 80%) | ≥ 80 | – | – | – | 40.6 | – | – | – | – | – | – | –
CC(C)CC(NS(=O)(=O)c1ccc2ccccc2c1)C(=O)NN(Cc1ccc(C(=N)N)cc1)C(=O)N1CCCCCC1 (centres unmarked) [Compound 10] | well tolerated (well tolerated by Ramos, since their residual metabolic activity did not fall below 80%) | ≥ 80 | 10 | > 100 | > 100 | – | 8.8 | – | – | – | – | – | –
CC1CCN(C(=O)N(CC2CCNCC2)NS(=O)(=O)c2ccc3ccccc3c2)CC1 [Compound 11] | severely cytotoxic (severely impaired the metabolic activity, such that it fell to under 6%) | < 6 | 19 | – | > 200 | 38.8 | – | under 40% | under 40% | under 40% | under 40% | under 40% | –
O=C(N1CCOCC1)N(CC1CCNCC1)NS(=O)(=O)c1ccc2ccccc2c1 [Compound 12] | well tolerated (well tolerated by Ramos, since their residual metabolic activity did not fall below 80%) | ≥ 80 | 53 | – | > 200 | 150 | – | – | – | – | – | – | –
O=C(N1CCCCC1)N(CC1CCNCC1)NS(=O)(=O)c1ccc2ccccc2c1 [Compound 13] | moderately cytotoxic (caused a moderate decrease (50% to 80%) relative to untreated cells) | 50 to 80 | 30 | – | > 200 | 65.9 | – | – | – | – | – | – | –
CC(=O)N1CCC(CN(NS(=O)(=O)c2ccc3ccccc3c2)C(=O)N2CCCCC2)CC1 [Compound 14] | – | – | – | – | – | 47.7 | – | – | under 40% | under 40% | under 40% | under 40% | poor solubility
